From US11083795B2, “Amorphous metal-organic frameworks” (Cambridge Enterprise Limited, priority 2015, dated 2021)

What was measured:
HeLa cells = test: Drug cellular uptake by confocal microscopy; type: cell-based; details: 24 h incubation; frameworks 0.5 mg/mL, free calcein 0.075 mg/mL
Method: HeLa cells were seeded in a NUNC™ imaging four-well plate at a density of 1.11×10^5 cell/mL and incubated for 24 h at 37° C. with 5% CO2 in DMEM supplemented with 10% (v/v) Fetal Bovine Serum (FBS), 2 mM L-glutamine, 100 units/mL penicillin and 100 μg/mL streptomycin.
The cells were washed twice with PBS and incubated together with calcein-loaded crystalline Zr-containing metal-organic frameworks (0.5 mg/mL) for 24 h. The amorphous frameworks were obtained by mechanical amorphization of calcein-loaded crystalline Zr-containing metal-organic frameworks. The metal-organic frameworks were well-dispersed in culture media before they were added to the cells.
Untreated cell and free calcein (at a concentration of 0.075 mg/mL) were included as controls.
After incubation for 24 h, the cells were washed several times to remove the non-internalized particles. Cells then were incubated for 15 min with Hoechst 33342 (H33342) and 1× of CellMask™ Orange to stain the nucleus and cell membrane, respectively (each dye provided at a concentration of 5 μg/mL). The cells were then washed extensively to remove the dyes and fresh media (without phenol red) was added to each sample. Finally, the plate was placed on a Leica TCS SP5 confocal microscope for imaging. The microscope was equipped with 405 diode, argon and HeNe lasers. Leica LAS AF software was used to analyse the images.

rat = system: rat; parameters: lethal dose LD50: unit not given here; details: cited from earlier work

SMILES	calcein signal in HeLa cells by confocal microscopy (HeLa cells)	lethal dose LD50 (rat; in rats)	oral lethal dose, LD50 (rat; oral, rat model)
O=C(O)CN(CC(=O)O)Cc1cc2c(cc1O)Oc1cc(O)c(CN(CC(=O)O)CC(=O)O)cc1C21OC(=O)c2ccccc21 [calcein]	stained weakly in the form of bright vesicles	–	–
CC(=O)[O-].CC(=O)[O-].[O-2].[Zr+4] [zirconyl acetate]	–	~4.1	around 4.1 g/kg
